According to patent US10597388B2, “Pyridazinone herbicides” (FMC CORPORATION, priority 2014, dated 2020):

Tests used:
Type in all cases: in vivo
[1] = tested on: barnyardgrass (Echinochloa crus-galli); experiment: Test A greenhouse herbicide test, pre- and postemergence
Summary of the method: (§1)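 Seeds in loam–sand blend received a preemergence directed soil spray; plants at 2–10 cm, one- to two-leaf stage, received postemergence sprays. Compounds in a non-phytotoxic solvent with surfactant. After about 10 d in a greenhouse, injury rated visually versus untreated controls on a 0–100 scale (100 = complete control).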

corn (Zea mays) = experiment: as above; conditions: Postemergence
Summary of the method: as §1

[2] = tested on: foxtail, giant (giant foxtail, Setaria faberii); experiment: as above
Summary of the method: as §1

kochia (Kochia scoparia) = experiment: as above
Summary of the method: as §1

[3] = tested on: pigweed (Amaranthus retroflexus); experiment: as above
Summary of the method: as §1

[4] = tested on: ragweed (common ragweed, Ambrosia elatior); experiment: as above
Summary of the method: as §1

[5] = tested on: ryegrass, Italian (Italian ryegrass, Lolium multiflorum); experiment: as above
Summary of the method: as §1

[6] = tested on: wheat (Triticum aestivum); experiment: as above; conditions: Postemergence
Summary of the method: as §1

[7] = tested on: blackgrass (Alopecurus myosuroides); experiment: Test A greenhouse herbicide test, postemergence
Summary of the method: (§2)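 Visual injury score, 0 (no effect) to 100 (complete control), versus untreated controls roughly 10 d after postemergence spray; plants at one- to two-leaf stage, 2 to 10 cm tall, in loam soil and sand, kept in greenhouse.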

[8] = tested on: galium (catchweed bedstraw, Galium aparine); experiment: Test A greenhouse herbicide test, postemergence
Summary of the method: as §2

[9] = tested on: barnyardgrass (Echinochloa crus-galli); experiment: Test C greenhouse herbicide test, pre- and postemergence
Source text: Seeds of plant species selected from blackgrass (Alopecurus myosuroides), ryegrass, Italian (Italian ryegrass, Lolium multiflorum), wheat (winter wheat, Triticum aestivum), galium (catchweed bedstraw, Galium aparine), corn (Zea mays), large crabgrass, large (large crabgrass, Digitaria sanguinalis), foxtail, giant (giant foxtail, Setaria faberii), johnsongrass (Sorghum halepense), lambsquarters (Chenopodium album), morningglory (Ipomoea coccinea), nutsedge, yellow (yellow nutsedge, Cyperus esculentus), pigweed (Amaranthus retroflexus), ragweed (common ragweed, Ambrosia elatior), soybean (Glycine max), barnyardgrass (Echinochloa crus-galli), oilseed rape (Brassica napus), waterhemp (common waterhemp, Amaranthus rudis), and velvetleaf (Abutilon theophrasti) were planted into a blend of loam soil and sand and treated preemergence with test chemicals formulated in a non-phytotoxic solvent mixture which included a surfactant.
At the same time, plants selected from these crop and weed species and also chickweed (common chickweed, Stellaria media), kochia (Kochia scoparia), and oat, wild (wild oat, Avena fatua), were planted in pots containing Redi-Earth® planting medium (Scotts Company, 14111 Scottslawn Road, Marysville, Ohio 43041) comprising spaghnum peat moss, vermiculite, wetting agent and starter nutrients and treated with postemergence applications of test chemicals formulated in the same manner. Plants ranged in height from 2 to 18 cm (1- to 4-leaf stage) for postemergence treatments. Treated plants and controls were maintained in a greenhouse for 13 to 15 d, after which time all species were compared to controls and visually evaluated. Plant response ratings, summarized in Table C, are based on a scale of 0 to 100 where 0 is no effect and 100 is complete control. A dash (-) response means no test result.

[10] = Postemergence, 125 g ai/ha, 0 to 100 scale where 0 is no effect and 100 is complete control
[11] = Postemergence, 500 g ai/ha, visual rating after approx. 10 d, 0 to 100 scale (0 no effect, 100 complete control)
[12] = Preemergence, 125 g ai/ha, 0 to 100 scale where 0 is no effect and 100 is complete control
[13] = Preemergence, 500 g ai/ha, 0 to 100 scale where 0 is no effect and 100 is complete control
[14] = 125 g ai/ha, 0 to 100 scale where 0 is no effect and 100 is complete control
[15] = 500 g ai/ha, visual rating after approx. 10 d, 0 to 100 scale (0 no effect, 100 complete control)
[16] = Postemergence, 31 g ai/ha, scale 0 to 100 (0 no effect, 100 complete control)
[17] = Postemergence, 62 g ai/ha, 0 to 100 scale (0 no effect, 100 complete control)
[18] = Postemergence, 125 g ai/ha, scale 0 to 100, 0 is no effect, 100 is complete control

`COC(=O)Oc1c(Br)nn(C)c(=O)c1-c1c(C)ccc2ccccc12` [Compound 137] was tested, and the “Plant response rating, Barnyardgrass” value [1, 10] was 70, the “Plant response rating, Barnyardgrass” value [1, 11] was 100 and the “Barnyardgrass plant response rating” value [1, 12] was 90. For the same compound, the “Plant response rating, Barnyardgrass” value [1, 13] was 100, the “Plant response rating, Corn” value (corn (Zea mays); [14]) was 30 and the “Plant response rating, Corn” value (corn (Zea mays); [15]) was 70. For the same compound, the “Plant response rating, Foxtail, Giant” value [2, 10] was 100, the “Plant response rating, Foxtail, Giant” value [2, 11] was 100 and the “Foxtail, Giant plant response rating” value [2, 12] was 90. For the same compound, the “Plant response rating, Foxtail, Giant” value [2, 13] was 100, the “Plant response rating, Kochia” value (kochia (Kochia scoparia); [10]) was 100 and the “Plant response rating, Kochia” value (kochia (Kochia scoparia); [11]) was 100. For the same compound, the “Kochia plant response rating” value (kochia (Kochia scoparia); [12]) was 30, the “Plant response rating, Kochia” value (kochia (Kochia scoparia); [13]) was 100 and the “Plant response rating, Pigweed” value [3, 10] was 100. For the same compound, the “Plant response rating, Pigweed” value [3, 11] was 100, the “Pigweed plant response rating” value [3, 12] was 100 and the “Plant response rating, Pigweed” value [3, 13] was 100. The “Plant response rating, Ragweed” value [4, 10] was 100, the “Plant response rating, Ragweed” value [4, 11] was 100 and the “Ragweed plant response rating” value [4, 12] was 90. For the same compound, the “Plant response rating, Ragweed” value [4, 13] was 100, the “Plant response rating, Ryegrass, Italian” value [5, 10] was 100 and the “Plant response rating, Ryegrass, Italian” value [5, 11] was 100. The “Ryegrass, Italian plant response rating” value [5, 12] was 100, the “Plant response rating, Ryegrass, Italian” value [5, 13] was 100 and the “Plant response rating, Wheat” value [6, 14] was 50. The “Plant response rating, Wheat” value [6, 15] was 90, the “Plant response rating, Blackgrass” value [7, 14] was 90 and the “Plant response rating, Blackgrass” value [7, 15] was 100. For the same compound, the “Plant response rating, Galium” value [8, 14] was 100, the “Plant response rating, Galium” value [8, 15] was 100 and the “Plant response rating, Barnyardgrass” value [9, 16] was 25. For the same compound, the “Barnyardgrass plant response rating” value [9, 17] was 40, the “Plant response rating, Barnyardgrass” value [9, 18] was 50 and the “Plant response rating, Barnyardgrass” value ([9]; Postemergence, 250 g ai/ha, scale 0 to 100, 0 no effect, 100 complete control, 13 to 15 d) was 65. The “Plant response rating, Barnyardgrass” value ([9]; Preemergence, 31 g ai/ha, scale 0 to 100, 0 is no effect, 100 is complete control) was 35, the “Plant response rating, Barnyardgrass” value ([9]; Preemergence, 62 g ai/ha, scale 0 to 100, 0 is no effect, 100 is complete control) was 85 and the “Plant response rating, Barnyardgrass” value ([9]; Preemergence, 125 g ai/ha, scale 0 to 100, 0 is no effect, 100 is complete control) was 90. For the same compound, the “Barnyardgrass plant response rating” value ([9]; Preemergence, 250 g ai/ha, scale 0 to 100 (0 no effect, 100 complete control)) was 100.
For `COC(=O)Oc1cnn(C)c(=O)c1-c1c(C)ccc2ccccc12` [Compound 143], the “Plant response rating, Barnyardgrass” value [1, 10] was 20, the “Plant response rating, Barnyardgrass” value [1, 11] was 60 and the “Barnyardgrass plant response rating” value [1, 12] was 20. The “Plant response rating, Barnyardgrass” value [1, 13] was 80, the “Plant response rating, Corn” value (corn (Zea mays); [14]) was 0 and the “Plant response rating, Corn” value (corn (Zea mays); [15]) was 20. For the same compound, the “Plant response rating, Foxtail, Giant” value [2, 10] was 20, the “Plant response rating, Foxtail, Giant” value [2, 11] was 60 and the “Foxtail, Giant plant response rating” value [2, 12] was 20. The “Plant response rating, Foxtail, Giant” value [2, 13] was 70, the “Plant response rating, Kochia” value (kochia (Kochia scoparia); [10]) was 70 and the “Plant response rating, Kochia” value (kochia (Kochia scoparia); [11]) was 90. The “Kochia plant response rating” value (kochia (Kochia scoparia); [12]) was 10, the “Plant response rating, Kochia” value (kochia (Kochia scoparia); [13]) was 70 and the “Plant response rating, Pigweed” value [3, 10] was 90. For the same compound, the “Plant response rating, Pigweed” value [3, 11] was 90, the “Pigweed plant response rating” value [3, 12] was 80 and the “Plant response rating, Pigweed” value [3, 13] was 100. The “Plant response rating, Ragweed” value [4, 10] was 70, the “Plant response rating, Ragweed” value [4, 11] was 70 and the “Plant response rating, Ragweed” value [4, 13] was 90. For the same compound, the “Plant response rating, Ryegrass, Italian” value [5, 10] was 80, the “Plant response rating, Ryegrass, Italian” value [5, 11] was 100 and the “Plant response rating, Ryegrass, Italian” value [5, 13] was 100. The “Plant response rating, Wheat” value [6, 14] was 0, the “Plant response rating, Wheat” value [6, 15] was 50 and the “Plant response rating, Blackgrass” value [7, 14] was 40. For the same compound, the “Plant response rating, Blackgrass” value [7, 15] was 60, the “Plant response rating, Galium” value [8, 14] was 90 and the “Plant response rating, Galium” value [8, 15] was 100. The “Plant response rating, Barnyardgrass” value ([9]; Postemergence, 16 g ai/ha, scale 0 to 100 (0 no effect, 100 complete control)) was 15, the “Plant response rating, Barnyardgrass” value [9, 16] was 20 and the “Barnyardgrass plant response rating” value [9, 17] was 25. The “Plant response rating, Barnyardgrass” value [9, 18] was 30.
